Consider seven compounds from patent US20250115597A1, “TYK2 INHIBITORS AND COMPOSITIONS AND METHODS THEREOF” (LYNK PHARMACEUTICALS CO. LTD., priority 2021, published 2025).

Data set [1] in a line: Microsomal metabolic stability assay. It counts as in vitro ADME. Conditions: pH 7.4, 0.5 mg/mL protein, 1 μM compound. The method, boiled down:
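Test article at 1 μM with 0.5 mg/mL microsomal protein and 2 mM NADPH, in 100 mM potassium phosphate pH 7.4 with 1.0 mM EDTA at 37 °C. Sampled at 0–45 min and quantified by LC/MS/MS. T1/2 from the slope of ln % remaining vs time.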

Another data set has as its target T1, JAK1-JH2 domain (Homo sapiens, UniProt P23458).
T1 construct: IC50 on JH2 domain activity (nM)
In words: Binding activity test for JH2 domain of JAK1 (Tb-antibody/tracer FRET). In a few lines:
(§1)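 Compounds tested as 11-point 3-fold serial dilutions against the JH2 domain in a Tb-antibody/tracer FRET binding format. Plates incubated 60 min at 25° C, then overnight at 4° C, before FRET reading.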

The target in another data set is T2, TYK2-JH2 domain (Homo sapiens, UniProt P29597).
T2 construct: IC50 on JH2 domain activity (nM)
In words: Binding activity test for JH2 domain of TYK2 (Tb-antibody/tracer FRET). Conditions: for JAK1/TYK2 selectivity: ratio JAK1-JH2 IC50 / TYK2-JH2 IC50. In a few lines:
as §1

Data set [2] in a line: Plasma protein binding by equilibrium dialysis. The format is in vitro ADME. Conditions: human plasma, equilibrium dialysis 5 hours at 37° C.; read-out: % Bound (human) (converted). The method, then: Plasma Protein Binding by Equilibrium Dialysis
Aliquots of test compound stock solution and warfarin stock solution were spiked into plasma to give the matrix solutions with theoretical concentrations of test compound at 0.2 and 2 μM or warfarin at 2 μM. Immediately transfer 50 μL of the spiked plasma solution suspension to a 96-well plate to act as T=0 control sample. Assemble the dialysis set up following the manufacturer's instructions. Load cells with 150 μL of plasma sample and dialyzed against equal volume of dialysis buffer (PBS). The assay is performed in duplicate. Cover the unit with gas permeable lid and incubate for 5 hours at 37° C. at 100 rpm in a constant temperature shaking box. At the end of incubation, remove lid and pipette 50 μL of post-dialysis samples from both buffer and plasma solution chambers into separated 96-well plate for analysis, respectively. Add 50 μL of plasma solution to the buffer samples, and an equal volume of PBS to the collected plasma solution samples. Shake the plate at 1000 rpm for 2 minutes and add 600 μL of 50% ACN/MeOH containing an appropriate internal standard (IS) to precipitate protein and release compound. Vortex at 1000 rpm for 10 minutes. Centrifuge for 10 minutes at 4000 rpm. Then transfer 75 μL of the supernatant to new 96-well plates for analysis. Add 150 μL of distilled water to each sample and mix for analysis by LC-MS/MS.
The free rate (% Unbound), binding rate (% Bound), and recovery rate (% Recovery) of the compound are calculated as follows: […]
A general note: Equilibrium dialysis compares concentrations on both sides of a semipermeable membrane.

A short description of a further data set: Kinetic solubility. It counts as physicochemical. Conditions: phosphate buffer, aqueous buffer, kinetic from dmso stock, PBS (pH 7.4), 1% DMSO, room temperature. The procedure: Aliquots of 8 μL of reference and test compound stock solutions (10 mM/5 mM) are added into 792 μL of 100 mM pH 7.4 phosphate buffer. The final DMSO concentration is 1%. Sample tubes are shaken for 2 hours at 1000 rpm at room temperature. Samples are centrifuged at 12000 rpm for 10 min to precipitate un-dissolved particles. And transfer the supernatants to a new tube or plate. Add 5 μL of samples (no diluted, 10 times diluted and 100 times diluted) and standard curve samples to 95 μL of ACN containing IS for LC-MS/MS analysis.

In another data set the test system is pSTAT1. In words: Phosphorylation inhibition of STAT in human whole blood, IFN-alpha stimulated (flow cytometry). The format is cell-based. Particulars: 20 min; human whole blood, IFN-alpha 20 mins, CD3 cells; read-out: IC50 on pSTAT1 inhibition in h WB. The method, boiled down: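 Freshly prepared PBMC or freshly collected whole blood stimulated with human Universal Type I IFN-alpha for 20 min, then fixed, permeabilized on ice and stained for CD3 and pSTAT1 (Y701). pSTAT1 read by flow cytometry; IC50 from 4-parameter logistic fit.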
Background: In flow cytometry, cells or beads pass a laser one at a time.

The target of data set [3] is T3, Ba/F3-FL-TYK2-P760L cells (Homo sapiens, UniProt P29597, P760L, cells depend on it).
T3 construct: BaF3-FL-T2P760L (nM)
In words: Anti-proliferative assay, Ba/F3-FL-TYK2-P760L cells (Cell-Titer Glo). Conditions: 72 h, read-out: BaF3-FL-T2P760L IC50. The format is cell-based. In a few lines: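 Ba/F3 cells made IL-3-independent by TEL-fused or full-length mutant JAK-family kinases, seeded at 2000/well and dosed after 24 h with 9 three-fold dilutions topping at 20 μM. Viability after 72 h at 37 °C, 5% CO2 by Cell-Titer Glo ATP luminescence.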

Another data set concerns the target T4, TYK2 (Homo sapiens, UniProt P29597).
T4 construct: purchased Carna Biosciences
The data set is described as follows: TYK2 kinase activity, microfluidic assay (Caliper EZ Reader II). The format is biochemical. Particulars: TYK2 1 nM, 1 mM ATP. The procedure: (§2) Testing for JAK1, JAK2 and TYK2 Kinase Activities
(§3) JAK activity was determined in the reaction buffer 50 mM HEPES, 0.01% Brij35, 10 mM MgCl2, 2 mM DTT by a microfluidic assay. The phosphorylation of a FAM labeled peptide substrate was monitored in the Caliper EZ Reader II (Perkin Elmer). The assay condition for each batch of enzyme (Carna Biosciences) was optimized to obtain 10% conversion rate of peptide substrate.
(§4) The test compounds were dissolved in DMSO to a stock concentration of 10 mM. Three-fold serially diluted compounds with top concentration of 5 μM were pre-incubated with JAK1, JAK2 or TYK2 for 10 min at ambient temperature. The final DMSO concentration of assay mixture was 1%. […] The reaction was stopped by adding 50 mM EDTA.
(§5) The percent inhibition was calculated by the following formula:
(§6) [formula] • wherein • Conversion %_max=the conversion rate in the positive well without addition of compound • Conversion %_sample=the conversion rate of test compounds • Conversion %_min=the conversion rate in the well without addition of enzyme
(§7) The dose-response (percent inhibition) curve was plotted and IC50 values were determined by GraphPad software.

The next data set addresses T5, JAK2 (Homo sapiens, UniProt O60674).
T5 construct: purchased Carna Biosciences
In words: JAK2 kinase activity, microfluidic assay (Caliper EZ Reader II). It counts as biochemical. Particulars: JAK2 0.125 nM, 1 mM ATP. The procedure:
as §2, §3, §4, §5, §6, §7

The target in a further data set is T6, JAK1 (Homo sapiens, UniProt P23458).
T6 construct: purchased Carna Biosciences
In words: JAK1 kinase activity, microfluidic assay (Caliper EZ Reader II). The format is biochemical. Particulars: JAK1 5 nM, 1 mM ATP. The method, then:
as §2, §3, §4, §5, §6, §7

Setting [4] is: dog liver microsomes, read-out: Dog LM Clint.
The mark [5] stands for this setting: dog liver microsomes, read-out: Dog LM T½.
Where [6] appears, read: human liver microsomes, read-out: Human LM Clint.
Setting [7] is: human liver microsomes, read-out: Human LM T½.
Setting [8] is: rat liver microsomes, read-out: Rat LM Clint.
Setting [9] is: rat liver microsomes, read-out: Rat LM T½.

pIC50: −log10 of the molar value. Converted amounts (≈) assume the structure as drawn. Read-outs that look alike come from different tables or passages of the source.

T2 sequence (P29597 589-875 limits assumed): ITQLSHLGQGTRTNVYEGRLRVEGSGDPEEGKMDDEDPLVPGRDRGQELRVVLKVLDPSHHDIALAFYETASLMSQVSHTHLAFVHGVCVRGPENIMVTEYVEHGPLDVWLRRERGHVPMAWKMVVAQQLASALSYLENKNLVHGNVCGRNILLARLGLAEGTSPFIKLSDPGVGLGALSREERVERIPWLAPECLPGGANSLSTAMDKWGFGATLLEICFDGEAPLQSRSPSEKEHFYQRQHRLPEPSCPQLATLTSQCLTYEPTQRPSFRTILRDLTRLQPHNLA
T3 sequence (P29597 whole entry P760L): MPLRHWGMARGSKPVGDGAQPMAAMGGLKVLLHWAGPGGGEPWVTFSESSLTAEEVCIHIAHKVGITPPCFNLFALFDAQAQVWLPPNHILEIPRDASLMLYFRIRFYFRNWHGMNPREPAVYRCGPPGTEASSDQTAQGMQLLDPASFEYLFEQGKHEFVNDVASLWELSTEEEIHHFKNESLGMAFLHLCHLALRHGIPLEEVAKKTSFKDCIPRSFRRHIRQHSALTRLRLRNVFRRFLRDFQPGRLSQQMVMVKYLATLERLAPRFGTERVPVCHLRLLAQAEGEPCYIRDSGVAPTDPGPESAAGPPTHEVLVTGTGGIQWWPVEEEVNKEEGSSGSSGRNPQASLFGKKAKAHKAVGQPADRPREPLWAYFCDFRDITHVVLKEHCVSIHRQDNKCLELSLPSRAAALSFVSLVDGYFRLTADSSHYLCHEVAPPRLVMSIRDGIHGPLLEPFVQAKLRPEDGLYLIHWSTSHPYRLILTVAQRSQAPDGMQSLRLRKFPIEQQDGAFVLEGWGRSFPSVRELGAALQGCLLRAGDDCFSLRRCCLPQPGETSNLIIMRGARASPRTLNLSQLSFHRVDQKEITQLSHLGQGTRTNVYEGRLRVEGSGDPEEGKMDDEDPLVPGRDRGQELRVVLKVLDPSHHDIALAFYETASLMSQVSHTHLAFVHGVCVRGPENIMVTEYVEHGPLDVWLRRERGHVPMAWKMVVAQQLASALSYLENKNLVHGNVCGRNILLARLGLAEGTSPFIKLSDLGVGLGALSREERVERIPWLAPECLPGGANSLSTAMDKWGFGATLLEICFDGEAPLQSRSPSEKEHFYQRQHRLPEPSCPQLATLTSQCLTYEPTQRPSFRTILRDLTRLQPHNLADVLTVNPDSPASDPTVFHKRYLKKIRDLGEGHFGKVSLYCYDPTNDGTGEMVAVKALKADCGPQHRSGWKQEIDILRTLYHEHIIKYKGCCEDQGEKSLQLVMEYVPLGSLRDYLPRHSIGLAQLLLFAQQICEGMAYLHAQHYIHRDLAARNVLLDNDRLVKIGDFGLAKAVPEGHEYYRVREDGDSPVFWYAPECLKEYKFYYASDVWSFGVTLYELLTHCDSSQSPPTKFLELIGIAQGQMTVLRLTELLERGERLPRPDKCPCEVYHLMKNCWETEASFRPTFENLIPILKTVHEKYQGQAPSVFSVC
T1 sequence (P23458 583-855 limits assumed): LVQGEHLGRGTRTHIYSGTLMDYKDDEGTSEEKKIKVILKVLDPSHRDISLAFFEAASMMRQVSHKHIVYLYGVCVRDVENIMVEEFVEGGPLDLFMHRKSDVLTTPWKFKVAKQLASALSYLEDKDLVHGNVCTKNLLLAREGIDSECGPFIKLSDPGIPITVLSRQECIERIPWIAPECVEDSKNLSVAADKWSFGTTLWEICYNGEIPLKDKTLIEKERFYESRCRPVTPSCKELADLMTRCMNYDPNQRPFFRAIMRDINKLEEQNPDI
T5 sequence (O60674 whole entry): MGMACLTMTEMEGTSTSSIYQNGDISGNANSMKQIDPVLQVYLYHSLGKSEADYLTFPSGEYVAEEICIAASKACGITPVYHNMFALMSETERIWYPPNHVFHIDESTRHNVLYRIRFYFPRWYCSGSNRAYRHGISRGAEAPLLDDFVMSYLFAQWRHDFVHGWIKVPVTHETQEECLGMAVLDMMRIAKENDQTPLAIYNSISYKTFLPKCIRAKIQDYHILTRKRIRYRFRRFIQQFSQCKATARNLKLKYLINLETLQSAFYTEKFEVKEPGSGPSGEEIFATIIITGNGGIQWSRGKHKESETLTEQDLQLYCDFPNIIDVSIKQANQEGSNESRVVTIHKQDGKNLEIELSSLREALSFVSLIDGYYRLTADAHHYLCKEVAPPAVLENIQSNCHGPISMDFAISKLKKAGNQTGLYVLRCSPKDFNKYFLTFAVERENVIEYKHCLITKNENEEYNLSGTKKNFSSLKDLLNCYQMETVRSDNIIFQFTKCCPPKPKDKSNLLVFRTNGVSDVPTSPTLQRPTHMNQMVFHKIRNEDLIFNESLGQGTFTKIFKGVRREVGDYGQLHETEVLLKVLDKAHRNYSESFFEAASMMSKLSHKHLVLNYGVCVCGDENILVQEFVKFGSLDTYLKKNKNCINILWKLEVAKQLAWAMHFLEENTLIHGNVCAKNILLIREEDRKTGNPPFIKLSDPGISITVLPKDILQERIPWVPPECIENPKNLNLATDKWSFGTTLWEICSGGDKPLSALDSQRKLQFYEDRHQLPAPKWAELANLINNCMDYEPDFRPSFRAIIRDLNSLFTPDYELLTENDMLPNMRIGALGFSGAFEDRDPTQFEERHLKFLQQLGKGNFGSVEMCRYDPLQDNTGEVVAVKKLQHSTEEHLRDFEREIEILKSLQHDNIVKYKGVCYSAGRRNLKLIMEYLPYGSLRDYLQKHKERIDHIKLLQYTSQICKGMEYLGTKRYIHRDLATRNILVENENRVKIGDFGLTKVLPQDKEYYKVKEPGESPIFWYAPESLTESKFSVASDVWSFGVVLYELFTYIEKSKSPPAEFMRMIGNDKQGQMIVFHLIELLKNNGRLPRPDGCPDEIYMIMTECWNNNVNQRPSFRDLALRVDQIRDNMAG
T6 sequence (P23458 whole entry): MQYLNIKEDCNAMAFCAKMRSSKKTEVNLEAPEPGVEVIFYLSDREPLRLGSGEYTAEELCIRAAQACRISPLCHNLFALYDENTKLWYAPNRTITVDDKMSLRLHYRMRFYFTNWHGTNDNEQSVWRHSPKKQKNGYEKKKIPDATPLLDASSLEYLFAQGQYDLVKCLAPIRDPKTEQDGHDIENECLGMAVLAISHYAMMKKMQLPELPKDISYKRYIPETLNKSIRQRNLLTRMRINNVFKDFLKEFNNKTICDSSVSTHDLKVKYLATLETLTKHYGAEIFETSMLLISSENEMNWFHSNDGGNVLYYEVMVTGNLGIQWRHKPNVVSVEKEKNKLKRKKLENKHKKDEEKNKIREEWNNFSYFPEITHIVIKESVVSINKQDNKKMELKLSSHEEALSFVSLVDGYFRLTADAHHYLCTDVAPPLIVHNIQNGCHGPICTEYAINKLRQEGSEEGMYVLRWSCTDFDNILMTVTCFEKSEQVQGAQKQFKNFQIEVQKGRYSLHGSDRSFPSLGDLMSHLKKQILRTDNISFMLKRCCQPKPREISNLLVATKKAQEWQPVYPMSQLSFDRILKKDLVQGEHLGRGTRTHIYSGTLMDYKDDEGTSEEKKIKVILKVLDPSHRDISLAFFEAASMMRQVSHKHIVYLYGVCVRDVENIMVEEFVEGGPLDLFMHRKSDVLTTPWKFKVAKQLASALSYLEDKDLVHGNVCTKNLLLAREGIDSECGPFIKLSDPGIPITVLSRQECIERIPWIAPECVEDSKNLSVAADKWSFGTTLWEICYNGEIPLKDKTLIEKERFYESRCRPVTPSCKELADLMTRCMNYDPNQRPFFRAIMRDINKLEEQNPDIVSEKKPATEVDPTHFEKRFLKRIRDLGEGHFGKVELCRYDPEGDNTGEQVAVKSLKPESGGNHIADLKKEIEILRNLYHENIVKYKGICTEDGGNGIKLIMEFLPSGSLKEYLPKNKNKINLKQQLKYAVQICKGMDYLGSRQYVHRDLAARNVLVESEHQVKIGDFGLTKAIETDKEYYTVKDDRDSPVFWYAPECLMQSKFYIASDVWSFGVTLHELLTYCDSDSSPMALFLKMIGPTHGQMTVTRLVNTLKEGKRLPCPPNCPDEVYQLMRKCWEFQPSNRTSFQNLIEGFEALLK
T4 sequence (P29597 whole entry): as the sequence (P29597 whole entry P760L) above, with L760P counted along it

In general, pIC50 refers to −log10 of the IC50, conventionally taken in molar units. Broadly, the solubility is the dissolved amount per volume that the medium holds. Higher therefore signals much dissolved substance. As to `[2H]C([2H])([2H])NC(=O)c1cnc(NC(=O)C2CC2)cc1Nc1cn(C)c2ncn([C@H](C)C(F)(F)F)c(=O)c12` (single isomer, unassigned) [Example 234A, (R*)-6-(cyclopropanecarboxamido)-N-(methyl-d3)-4-((7-methyl-4-oxo-3-(1,1,1-trifluoropropan-2-yl)-4,7-dihydro-3H-pyrrolo[2,3-d]pyrimidin-5-yl)amino)nicotinamide], the microsomal CLint at 1 μM turned out to be 10.9 µL/min/mg in data set [1] (setting [4]), 24.3 µL/min/mg in data set [1] (setting [6]) and 35.3 µL/min/mg in [1] (setting [8]). Besides, the figures for the half-life at 1 μM in [1] (setting [5]), in data set [1] (setting [7]) and in [1] (setting [9]) were 127 min, 57 min and 39.3 min, respectively. The results for the negative logarithm of the IC50 (pIC50) at JAK1-JH2 domain, on TYK2-JH2 domain and in the data set on pSTAT1 were 7.61, 9.28 and 6.31, respectively. For the same compound, the JAK1/TYK2 selectivity at TYK2-JH2 domain was found to be 46.7. Besides, the fraction unbound at 5 h in [2] is 0.123. The compound further gave a solubility at 2 h in the data set “Kinetic solubility” of 29.9 µM (≈ 14.4 µg/mL).
Consider `[2H]C([2H])([2H])NC(=O)c1cnc(NC(=O)C2CC2)cc1Nc1ccc2cnn(C(C)C#N)c2c1OC` (stereo not drawn) [Example 249, 4-((1-(1-Cyanoethyl)-7-methoxy-1H-indazol-6-yl)amino)-6-(cyclopropanecarboxamido)-N-(methyl-d3)nicotinamide], for which the values for the pIC50 at JAK1-JH2 domain and at TYK2-JH2 domain were 7.59 and 9.11, respectively. In addition, the JAK1/TYK2 selectivity at TYK2-JH2 domain was found to be 32.5. In addition, in [3], the GI50 came to 357 nM. In addition, the solubility at 2 h in “Kinetic solubility” was determined as 47.4 µM (≈ 20.7 µg/mL).
As to `[2H]C([2H])([2H])NC(=O)c1cnc(NC(=O)C2CC2)cc1Nc1ccc2cn[nH]c2c1OC` [Example 207, 6-(Cyclopropanecarboxamido)-4-((7-methoxy-1H-indazol-6-yl)amino)-N-(methyl-d3)nicotinamide], the pIC50 at TYK2-JH2 domain was 9.39. For the same compound, the fraction unbound at 5 h in data set [2] was 0.039. Further, the GI50 in data set [3] is 149 nM. Also, the concentration in solution in the data set “Kinetic solubility” (solubility at 2 h) came to 8.45 µM (≈ 3.24 µg/mL).
Consider `[2H]C([2H])([2H])NC(=O)c1cnc(NC(=O)C2CC2)cc1Nc1ccc2cnn(C)c2c1OC` [Example 206, 6-(Cyclopropanecarboxamido)-4-((7-methoxy-1-methyl-1H-indazol-6-yl)amino)-N-(methyl-d3)nicotinamide], for which the negative-log IC50 (pIC50) at JAK1-JH2 domain is 7.96. Moreover, at TYK2-JH2 domain, the negative-log IC50 (pIC50) is 9.21 and the JAK1/TYK2 selectivity was 17.6. In [2], the fraction unbound at 5 h was 0.07. For the same compound, in data set [3], the GI50 turned out to be 68.5 nM. For the same compound, in the data set “Kinetic solubility”, the concentration in solution (solubility at 2 h) came to 28.7 µM (≈ 11.4 µg/mL).
For `[2H]C([2H])([2H])NC(=O)c1cnc(NC(=O)C2CC2)cc1Nc1ccc2cnn(CC(F)F)c2c1OC` [Example 131, 6-(Cyclopropanecarboxamido)-4-((1-(2,2-difluoroethyl)-7-methoxy-1H-indazol-6-yl)amino)-N-(methyl-d3)nicotinamide], the microsomal CLint at 1 μM in data set [1] (setting [4]) was 65.8 µL/min/mg; in [1] (setting [6]) it was 95 µL/min/mg; in [1] (setting [8]), 109 µL/min/mg. The half-life at 1 μM in data set [1] (setting [5]) came out at 21.1 min; in data set [1] (setting [7]), 14.6 min; in data set [1] (setting [9]), 12.8 min. Moreover, the pIC50 was 7.88 at JAK1-JH2 domain and 9.48 on TYK2-JH2 domain. The JAK1/TYK2 selectivity at TYK2-JH2 domain was 40.2. In data set [2], the fraction unbound at 5 h was 0.046. Besides, the GI50 in data set [3] amounted to 65.4 nM. The same compound returned a solubility at 2 h in “Kinetic solubility” of 32.1 µM (≈ 14.4 µg/mL).
As to `CCn1ncc2cnc(Nc3cc(NC(=O)C4CC4)ncc3C(=O)NC)c(OC)c21` [Example 261, 6-(Cyclopropanecarboxamido)-4-((1-ethyl-7-methoxy-1H-pyrazolo[4,3-c]pyridin-6-yl)amino)-N-methylnicotinamide], the negative logarithm of the IC50 (pIC50) on JAK1-JH2 domain was 7.34; at TYK2-JH2 domain it was 9.02; against TYK2, less than 5.30; on JAK2, less than 5.30; at JAK1 it was less than 5.30. In addition, the JAK1/TYK2 selectivity at TYK2-JH2 domain was 47.4. Further, the fraction unbound at 5 h in data set [2] is 0.085. The GI50 in [3] was 113 nM. Moreover, the solubility at 2 h in the data set “Kinetic solubility” worked out at 58 µM (≈ 23.8 µg/mL).
As for `[2H]C([2H])([2H])NC(=O)c1cnc(Nc2ccc(F)cn2)cc1Nc1cn(CCOC)c2ccn(CC)c(=O)c12` [Example 192, 4-((5-Ethyl-1-(2-methoxyethyl)-4-oxo-4,5-dihydro-1H-pyrrolo[3,2-c]pyridin-3-yl)amino)-6-((5-fluoropyridin-2-yl)amino)-N-(methyl-d3)nicotinamide], the microsomal CLint at 1 μM in data set [1] (setting [4]) was determined as 21.9 µL/min/mg; in [1] (setting [6]), 26.8 µL/min/mg; in data set [1] (setting [8]), 72.6 µL/min/mg. Also, the half-life at 1 μM in data set [1] (setting [5]) came out at 63.4 min; in [1] (setting [7]), 51.6 min; in data set [1] (setting [9]) it was 19.1 min. For the same compound, the pIC50 on TYK2-JH2 domain is 8.47. Moreover, the GI50 in [3] stood at 124 nM. In addition, the solubility at 2 h in the data set “Kinetic solubility” was 17.8 µM (≈ 8.59 µg/mL).
